Source: paper PMC9268243, “Metabolic Behaviors of Aconitum Alkaloids in Different Concentrations of Aconiti Lateralis Radix Praeparata and Effects of Aconitine in Healthy Human and Long QT Syndrome Cardiomyocytes” (Molecules, 2022)

Legend:
LQT syndrome hiPSC-CMs = assay: Impedance beating recordings (cell index, beat rate, amplitude), LQT syndrome hiPSC-CMs; assay type: cell-based, human
Experimental: HiPSCs derived from healthy controls (Cat: NC20010002; Lot.HJ210577NC22), or patients (Cat. NC20300002; Lot. CP210578NC04) diagnosed with LQT syndrome was maintained in HELP4004 (HELP, Nanjing, China) medium on Matrigel-coated (BD Bio science, San Jose, CA, USA) plates at 37 °C; with 5% CO2 (v/v).
The cardiomyocytes were seeded on Nanion CardioExcyte 96 Sensor Plates (NSP-96, Nanion Technologies, Munich, Germany) after 0.1% gelatin coating for 1 h. The initial volume was 200 μL per well and contained approximately […]. After seeding, the NSP-96 and CardioExcyte 96 were returned to the incubator. All cells were replaced with fresh medium 200 μL per well every 48 h and tested after 168 h. Cellular index, beat rate, base impedance and beat amplitude were monitored in this experiment.
(§1) Isoproterenol, nifedipine, and AC were purchased from Sigma-Aldrich, which were resolved in DMSO (Sigma-Aldrich, D2650). Drug compounds final concentration were AC (0.05, 0.5,5 μM), nifedipine (1 μM), isoproterenol (3 μM), respectively. Dilutions were prepared within 60 min of treatment. All the compound solutions were subjected to regular 10 min ultrasound and oscillations to ensure that compounds were completely dissolved. Equal amounts of DMSO (0.1%) were used as the vehicle controls.

normal hiPSC-CMs [1] = assay: Whole-cell current-clamp action potential recording, normal hiPSC-CMs; assay type: cell-based, human; settings: normal hiPSC-CMs, 0.05, 0.5 and 5 μM, 1 Hz stimulation
Description: Standard patch-clamp techniques were used to record action potentials, and L-type calcium currents. Composition of intracellular fluid and extracellular fluid were shown in Table 7 and Table 8, respectively. The signal was amplified using an HEKA EPC-10 patch-clamp amplifier (HEKA, Electronics, Ludwigshafen, Germany) and low-pass filtered at 5 kHz. Patch pipettes were fabricated from glass capillaries using a Sutter P-97 microelectrode puller (Novato, CA, USA) and the tips were heat polished with a microforge (NARISHIGE MF-900) to gain a resistance of 2–5 MΩ. Data acquisition was achieved using HEKA Patchmaster (V2x73.2). Data analysis and fit were performed using Clamfit and Graphpad Prism 6.0. The experiment was conducted at 37 °C. One cell can test one or more drugs, or multiple concentrations of the same drug but needs to be rinsed with extracellular fluid between each test. Nifedipine (Sigma) was used as a positive control to ensure cell quality. External solution containing 0.1% DMSO was applied as vehicle to establish the baseline. Recording was done at a temperature-controlled room of 35–37 degrees Celsius.
Isoproterenol, nifedipine, and AC were purchased from Sigma-Aldrich, which were resolved in DMSO (Sigma-Aldrich, D2650). Drug compounds final concentration were AC (0.05, 0.5,5 μM), nifedipine (1 μM), isoproterenol (3 μM), respectively. […]

normal hiPSC-CMs [2] = assay: Ca2+ imaging of calcium transients, normal hiPSC-CMs; assay type: cell-based, human; settings: compared with the control group
Experimental: Dissociated day 30–33 post-differentiation hiPSC-CMs (healthy and LQT specific patient) were reseeded Matrigel-coated plate in HELP4004 (HELP) and were treated with 5 μM Fluo-3 AM and 0.02% Pluronic (Life Technologies) in DMEM/F12 (Gibco) for 60 min at 37 °C. Cells were washed with DMEM/F12 without fluorochrome solution afterwards for 30 min, replaced the solution with Tyrode’s solution. Ca^2+ imaging was conducted using Olympus IX71 confocal microscope (Olympus IX71, Tokyo, Japan) and analyzed using Olympus imaging software. Ca^2+ spontaneous transients were obtained using a single cell line scan mode at 37 °C.
as §1

myocardial cells = tested on: myocardial cells; parameters: method as in our previous work; settings: low doses 5–20 nmol/L, ref our previous work; cited from earlier work
[3] = LQT hiPSC-CMs, 0.05 μM, versus control group

CCN1C[C@]2(COC)[C@H](O)C[C@H](OC)[C@@]34[C@@H]5C[C@@]6(O)[C@H](OC(=O)c7ccccc7)[C@@H]5[C@@](OC(C)=O)([C@@H]([C@H](OC)[C@H]23)[C@@H]14)[C@@H](O)[C@@H]6OC [AC, aconitine]
contraction force (LQT syndrome hiPSC-CMs; [3]): lower contraction force
contraction frequency (LQT syndrome hiPSC-CMs; [3]): higher contraction frequency
cell frequency (LQT syndrome hiPSC-CMs; LQT hiPSC-CMs, 0.5 μM): significantly increased
contractility (LQT syndrome hiPSC-CMs; LQT hiPSC-CMs, 0.5 μM): significantly increased
cell contractility (LQT syndrome hiPSC-CMs; LQT hiPSC-CMs, 5 μM, very weak within 30 h after treatment): decreased to zero
myocardial cell death (LQT syndrome hiPSC-CMs; LQT hiPSC-CMs, three concentrations (0.05, 0.5, 5 μM), 48 h observation period): None of the three concentrations caused significant myocardial cell death
cell index (LQT syndrome hiPSC-CMs; LQTS hiPSC-CMs, 5.0 μM, between 5–30 min): decreased the cell index
APD50 (normal hiPSC-CMs [1]): concentration-dependently shortened
amplitude and frequency of calcium transient (normal hiPSC-CMs [2]): no significant effect
mitochondrial energy metabolism (myocardial cells): could improve mitochondrial energy metabolism
